From ChEMBL document CHEMBL4229542 (Bioorg Med Chem Lett, 2018)
pIC50, pKi: −log10 of the molar value.

Columns and labels:
[1] = Permeability from apical to basolateral side in human Caco2 cells; format: ADME, cell-based; settings: Caco-2, read-out: permeability
[2] = Intrinsic clearance in rat liver microsomes assessed per mg protein; format: ADME, microsome; settings: read-out: CLH
[3] = Intrinsic clearance in human liver microsomes assessed per mg protein; format: ADME, microsome; settings: read-out: CLH
[4] = Intrinsic clearance in mouse liver microsomes assessed per mg protein; format: ADME, microsome; settings: read-out: CLH
Rattus norvegicus = assay: Volume of distribution at steady state in rat at 0.5 mg/kg, po; format: ADME, organism-based; settings: in vivo
[5] = target: Tyrosine-protein kinase Blk (Homo sapiens) (UniProt P51451); assay: Inhibition of Blk (unknown origin) at 1 uM relative to control
Tyrosine-protein kinase Blk (Homo sapiens), sequence (P51451 2-505 limits assumed): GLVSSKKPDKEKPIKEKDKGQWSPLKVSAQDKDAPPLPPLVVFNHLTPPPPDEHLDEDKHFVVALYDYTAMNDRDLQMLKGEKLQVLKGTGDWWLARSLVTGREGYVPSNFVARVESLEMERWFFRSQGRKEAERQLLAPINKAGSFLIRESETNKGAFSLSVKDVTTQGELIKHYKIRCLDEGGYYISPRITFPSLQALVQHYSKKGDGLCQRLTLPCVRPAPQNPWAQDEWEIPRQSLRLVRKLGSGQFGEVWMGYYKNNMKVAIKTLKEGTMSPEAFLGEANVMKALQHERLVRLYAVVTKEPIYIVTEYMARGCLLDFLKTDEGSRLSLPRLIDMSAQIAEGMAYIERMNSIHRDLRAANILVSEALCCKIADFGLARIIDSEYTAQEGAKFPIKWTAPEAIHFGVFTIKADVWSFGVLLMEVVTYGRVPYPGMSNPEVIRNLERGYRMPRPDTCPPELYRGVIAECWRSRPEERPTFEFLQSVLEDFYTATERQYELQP

[6] = target: T1, Cytoplasmic tyrosine-protein kinase BMX (Homo sapiens) (UniProt P51813); assay: Inhibition of BMX (unknown origin) at 1 uM relative to control
T1 sequence (whole entry): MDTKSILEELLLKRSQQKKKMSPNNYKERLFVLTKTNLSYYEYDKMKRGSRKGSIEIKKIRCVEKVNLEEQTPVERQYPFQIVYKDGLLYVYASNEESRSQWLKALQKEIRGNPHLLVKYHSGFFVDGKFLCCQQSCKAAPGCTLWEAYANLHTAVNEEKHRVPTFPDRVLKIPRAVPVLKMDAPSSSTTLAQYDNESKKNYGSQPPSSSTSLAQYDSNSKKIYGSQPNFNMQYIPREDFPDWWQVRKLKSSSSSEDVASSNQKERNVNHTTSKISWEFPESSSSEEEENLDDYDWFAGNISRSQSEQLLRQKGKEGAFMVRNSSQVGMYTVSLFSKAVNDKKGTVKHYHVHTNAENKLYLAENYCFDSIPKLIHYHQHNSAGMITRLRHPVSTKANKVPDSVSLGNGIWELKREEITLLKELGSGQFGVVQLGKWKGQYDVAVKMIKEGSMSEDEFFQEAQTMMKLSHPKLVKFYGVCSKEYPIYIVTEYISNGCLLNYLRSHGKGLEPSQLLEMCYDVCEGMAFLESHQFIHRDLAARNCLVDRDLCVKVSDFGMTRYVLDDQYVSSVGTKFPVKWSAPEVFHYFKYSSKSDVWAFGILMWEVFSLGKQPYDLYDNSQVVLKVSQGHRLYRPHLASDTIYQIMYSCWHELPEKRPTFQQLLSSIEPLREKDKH

[7] = Fraction unbound in rat plasma; format: ADME, cell-free
[8] = Fraction unbound in mouse plasma; format: ADME, cell-free
[9] = Clearance in rat at 0.5 mg/kg, po; settings: in vivo
[10] = target: Voltage-gated inwardly rectifying potassium channel KCNH2 (Homo sapiens, UniProt Q12809); assay: Binding affinity to human ERG
Voltage-gated inwardly rectifying potassium channel KCNH2, sequence (Q12809 whole entry): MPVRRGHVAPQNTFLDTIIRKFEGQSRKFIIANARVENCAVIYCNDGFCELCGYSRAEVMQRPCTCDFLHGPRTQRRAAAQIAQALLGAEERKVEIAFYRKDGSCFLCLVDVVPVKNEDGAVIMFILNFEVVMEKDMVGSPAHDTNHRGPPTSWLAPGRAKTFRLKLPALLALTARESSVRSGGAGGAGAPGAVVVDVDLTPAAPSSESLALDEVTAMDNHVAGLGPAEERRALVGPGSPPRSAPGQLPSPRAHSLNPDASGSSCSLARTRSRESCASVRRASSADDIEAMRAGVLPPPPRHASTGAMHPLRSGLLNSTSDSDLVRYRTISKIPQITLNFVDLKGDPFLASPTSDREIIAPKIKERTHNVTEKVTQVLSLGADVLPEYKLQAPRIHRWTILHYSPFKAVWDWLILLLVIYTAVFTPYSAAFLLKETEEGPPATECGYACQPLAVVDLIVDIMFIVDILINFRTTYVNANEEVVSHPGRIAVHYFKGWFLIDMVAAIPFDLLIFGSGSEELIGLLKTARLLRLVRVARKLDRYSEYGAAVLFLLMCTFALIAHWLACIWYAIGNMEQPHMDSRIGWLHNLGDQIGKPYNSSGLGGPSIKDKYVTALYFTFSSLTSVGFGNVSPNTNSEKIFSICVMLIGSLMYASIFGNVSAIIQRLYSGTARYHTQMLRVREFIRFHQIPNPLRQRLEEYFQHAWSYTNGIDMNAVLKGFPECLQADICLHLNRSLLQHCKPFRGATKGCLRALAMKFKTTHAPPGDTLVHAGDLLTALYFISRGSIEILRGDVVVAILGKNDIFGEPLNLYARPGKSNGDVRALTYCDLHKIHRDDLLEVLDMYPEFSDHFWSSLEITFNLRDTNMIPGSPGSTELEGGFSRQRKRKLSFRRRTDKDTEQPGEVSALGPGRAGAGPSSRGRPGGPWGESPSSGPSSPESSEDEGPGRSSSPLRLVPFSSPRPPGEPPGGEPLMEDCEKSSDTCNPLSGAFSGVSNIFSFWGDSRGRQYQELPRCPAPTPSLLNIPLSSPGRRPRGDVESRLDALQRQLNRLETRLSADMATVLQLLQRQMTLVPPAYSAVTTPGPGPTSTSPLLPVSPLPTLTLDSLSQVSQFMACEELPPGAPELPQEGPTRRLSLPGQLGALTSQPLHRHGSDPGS

[11] = target: T2, Tyrosine-protein kinase TXK (Homo sapiens) (UniProt P42681); assay: Inhibition of TXK (unknown origin) at 1 uM relative to control
T2 sequence (whole entry): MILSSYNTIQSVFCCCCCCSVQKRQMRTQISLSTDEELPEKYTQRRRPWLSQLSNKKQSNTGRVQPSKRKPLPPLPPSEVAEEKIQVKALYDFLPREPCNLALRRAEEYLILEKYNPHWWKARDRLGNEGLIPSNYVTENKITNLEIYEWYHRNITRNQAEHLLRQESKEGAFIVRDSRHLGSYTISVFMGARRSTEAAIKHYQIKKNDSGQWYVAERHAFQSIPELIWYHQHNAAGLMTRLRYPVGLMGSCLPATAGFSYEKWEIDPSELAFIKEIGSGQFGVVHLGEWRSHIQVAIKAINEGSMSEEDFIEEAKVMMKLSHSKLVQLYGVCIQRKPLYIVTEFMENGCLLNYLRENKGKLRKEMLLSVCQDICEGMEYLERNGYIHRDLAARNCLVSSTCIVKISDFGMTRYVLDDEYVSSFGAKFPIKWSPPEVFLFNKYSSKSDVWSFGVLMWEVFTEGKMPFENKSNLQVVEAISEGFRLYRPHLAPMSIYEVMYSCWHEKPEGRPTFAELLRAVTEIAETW

[12] = Oral bioavailability in rat at 0.5 mg/kg; format: ADME, organism-based; settings: in vivo
Cytochrome P450 2C8 = target: T3, Cytochrome P450 2C8 (Homo sapiens, UniProt P10632); assay: Inhibition of CYP2C8 (unknown origin); format: ADME
T3 sequence (P10632 whole entry): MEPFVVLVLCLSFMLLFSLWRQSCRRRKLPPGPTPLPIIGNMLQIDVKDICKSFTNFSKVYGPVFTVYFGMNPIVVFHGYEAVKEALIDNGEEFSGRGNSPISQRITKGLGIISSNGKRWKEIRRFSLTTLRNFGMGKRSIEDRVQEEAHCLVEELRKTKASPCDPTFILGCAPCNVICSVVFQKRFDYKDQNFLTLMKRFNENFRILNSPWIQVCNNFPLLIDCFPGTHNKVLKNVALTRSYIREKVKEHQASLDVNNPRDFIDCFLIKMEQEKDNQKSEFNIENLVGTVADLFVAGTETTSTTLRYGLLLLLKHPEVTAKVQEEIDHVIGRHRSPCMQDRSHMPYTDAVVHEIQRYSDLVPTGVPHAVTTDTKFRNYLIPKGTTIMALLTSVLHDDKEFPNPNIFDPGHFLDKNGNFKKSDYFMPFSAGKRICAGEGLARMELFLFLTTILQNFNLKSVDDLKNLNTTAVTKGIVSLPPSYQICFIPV

[13] = Half life in rat at 0.5 mg/kg, po; format: ADME, organism-based; settings: in vivo
[14] = Fraction unbound in human plasma; format: ADME, cell-free
EGFR = EGFR (Homo sapiens, UniProt P00533); assay: Inhibition of EGFR (unknown origin) at 1 uM relative to control
EGFR, sequence (P00533 whole entry): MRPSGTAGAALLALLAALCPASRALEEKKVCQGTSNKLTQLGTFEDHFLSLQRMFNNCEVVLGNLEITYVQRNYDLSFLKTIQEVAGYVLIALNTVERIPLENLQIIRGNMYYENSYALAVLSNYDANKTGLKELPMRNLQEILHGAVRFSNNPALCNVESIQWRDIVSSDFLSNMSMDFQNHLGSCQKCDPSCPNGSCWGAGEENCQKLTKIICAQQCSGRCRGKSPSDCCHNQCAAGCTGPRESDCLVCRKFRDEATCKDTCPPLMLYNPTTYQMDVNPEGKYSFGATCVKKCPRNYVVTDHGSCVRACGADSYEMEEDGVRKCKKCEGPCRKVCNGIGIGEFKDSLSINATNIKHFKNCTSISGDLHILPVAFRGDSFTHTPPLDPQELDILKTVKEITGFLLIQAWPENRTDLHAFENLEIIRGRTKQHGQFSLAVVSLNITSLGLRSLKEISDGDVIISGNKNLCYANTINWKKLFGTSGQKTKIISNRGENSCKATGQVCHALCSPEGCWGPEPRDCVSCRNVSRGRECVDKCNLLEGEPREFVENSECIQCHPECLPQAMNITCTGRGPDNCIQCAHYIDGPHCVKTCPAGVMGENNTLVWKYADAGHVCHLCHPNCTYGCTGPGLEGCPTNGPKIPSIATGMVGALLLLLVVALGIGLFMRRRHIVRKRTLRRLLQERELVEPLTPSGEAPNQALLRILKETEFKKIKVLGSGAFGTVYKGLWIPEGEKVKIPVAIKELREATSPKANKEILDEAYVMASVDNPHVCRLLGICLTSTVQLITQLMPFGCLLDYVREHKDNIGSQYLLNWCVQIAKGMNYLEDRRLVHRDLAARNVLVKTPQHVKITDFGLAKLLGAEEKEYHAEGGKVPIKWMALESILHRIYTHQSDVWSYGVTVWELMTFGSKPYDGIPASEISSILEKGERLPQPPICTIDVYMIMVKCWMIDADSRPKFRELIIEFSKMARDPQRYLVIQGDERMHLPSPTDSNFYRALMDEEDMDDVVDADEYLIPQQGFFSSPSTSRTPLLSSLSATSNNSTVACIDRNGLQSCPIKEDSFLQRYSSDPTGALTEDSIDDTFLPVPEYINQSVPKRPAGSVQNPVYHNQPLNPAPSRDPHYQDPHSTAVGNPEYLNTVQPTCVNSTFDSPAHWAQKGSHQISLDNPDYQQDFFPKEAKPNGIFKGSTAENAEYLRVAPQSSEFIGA

Cytochrome P450 2C9 = Cytochrome P450 2C9 (Homo sapiens, UniProt P11712); assay: Inhibition of CYP2C9 (unknown origin); format: ADME
Cytochrome P450 2C9, sequence (P11712 whole entry): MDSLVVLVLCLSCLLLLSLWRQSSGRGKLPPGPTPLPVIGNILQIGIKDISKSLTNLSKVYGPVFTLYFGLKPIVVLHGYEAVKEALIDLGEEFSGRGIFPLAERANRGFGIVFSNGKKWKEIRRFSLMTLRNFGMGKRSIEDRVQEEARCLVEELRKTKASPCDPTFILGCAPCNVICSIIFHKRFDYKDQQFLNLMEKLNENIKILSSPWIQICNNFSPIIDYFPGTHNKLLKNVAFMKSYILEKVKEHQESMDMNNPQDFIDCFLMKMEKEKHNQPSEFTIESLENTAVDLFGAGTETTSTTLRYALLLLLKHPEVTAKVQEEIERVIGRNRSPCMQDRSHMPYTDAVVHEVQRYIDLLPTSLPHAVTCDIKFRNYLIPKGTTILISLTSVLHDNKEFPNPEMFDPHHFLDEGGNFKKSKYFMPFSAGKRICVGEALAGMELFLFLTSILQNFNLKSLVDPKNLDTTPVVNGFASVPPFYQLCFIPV

Cytochrome P450 2C19 = Cytochrome P450 2C19 (Homo sapiens, UniProt P33261); assay: Inhibition of CYP2C19 (unknown origin); format: ADME
Cytochrome P450 2C19, sequence (P33261 whole entry): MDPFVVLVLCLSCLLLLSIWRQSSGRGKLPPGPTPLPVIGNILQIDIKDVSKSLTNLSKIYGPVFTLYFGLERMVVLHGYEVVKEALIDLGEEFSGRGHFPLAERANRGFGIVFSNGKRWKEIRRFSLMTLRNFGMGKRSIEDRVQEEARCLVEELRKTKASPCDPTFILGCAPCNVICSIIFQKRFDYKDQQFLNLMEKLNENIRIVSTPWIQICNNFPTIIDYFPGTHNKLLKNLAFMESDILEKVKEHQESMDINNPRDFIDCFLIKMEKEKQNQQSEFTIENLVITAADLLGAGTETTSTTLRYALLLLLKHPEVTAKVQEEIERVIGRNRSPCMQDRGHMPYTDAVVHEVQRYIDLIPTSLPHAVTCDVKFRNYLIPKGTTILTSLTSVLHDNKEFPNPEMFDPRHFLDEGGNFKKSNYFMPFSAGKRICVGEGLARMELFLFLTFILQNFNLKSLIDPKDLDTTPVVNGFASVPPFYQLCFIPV

Cytochrome P450 2B6 = target: T4, Cytochrome P450 2B6 (Homo sapiens, UniProt P20813); assay: Inhibition of CYP2B6 (unknown origin); format: ADME
T4 sequence (P20813 whole entry): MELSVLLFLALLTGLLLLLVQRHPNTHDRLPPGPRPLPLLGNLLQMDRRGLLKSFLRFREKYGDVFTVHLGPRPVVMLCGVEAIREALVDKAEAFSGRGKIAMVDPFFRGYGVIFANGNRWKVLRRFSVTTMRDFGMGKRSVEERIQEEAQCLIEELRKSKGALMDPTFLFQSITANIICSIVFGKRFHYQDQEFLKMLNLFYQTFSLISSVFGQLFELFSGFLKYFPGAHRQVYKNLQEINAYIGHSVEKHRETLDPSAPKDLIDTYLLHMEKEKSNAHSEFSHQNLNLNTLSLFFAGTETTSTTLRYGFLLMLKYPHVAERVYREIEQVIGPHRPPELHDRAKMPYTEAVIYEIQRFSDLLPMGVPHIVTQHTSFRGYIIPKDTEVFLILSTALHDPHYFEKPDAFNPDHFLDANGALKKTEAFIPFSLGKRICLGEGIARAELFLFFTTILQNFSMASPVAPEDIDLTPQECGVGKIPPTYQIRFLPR

Cytochrome P450 3A4 = Cytochrome P450 3A4 (Homo sapiens, UniProt P08684); assay: Inhibition of CYP3A4 (unknown origin); format: ADME
Cytochrome P450 3A4, sequence (P08684 whole entry): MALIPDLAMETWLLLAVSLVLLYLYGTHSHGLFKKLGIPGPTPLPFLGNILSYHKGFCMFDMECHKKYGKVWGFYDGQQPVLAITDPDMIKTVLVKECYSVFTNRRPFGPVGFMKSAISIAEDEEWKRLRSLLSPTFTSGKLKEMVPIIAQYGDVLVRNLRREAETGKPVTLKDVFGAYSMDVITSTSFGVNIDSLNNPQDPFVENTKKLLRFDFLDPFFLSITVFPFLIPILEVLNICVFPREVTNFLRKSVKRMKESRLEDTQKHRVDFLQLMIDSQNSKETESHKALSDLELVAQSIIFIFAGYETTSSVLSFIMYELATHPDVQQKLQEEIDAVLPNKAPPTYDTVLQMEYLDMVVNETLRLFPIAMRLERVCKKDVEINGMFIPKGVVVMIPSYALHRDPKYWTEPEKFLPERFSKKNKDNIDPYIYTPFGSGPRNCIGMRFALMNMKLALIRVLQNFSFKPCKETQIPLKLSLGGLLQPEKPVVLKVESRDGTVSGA

[15] = target: Tyrosine-protein kinase BTK (Homo sapiens, UniProt Q06187); assay: Inhibition of BTK (unknown origin)
Tyrosine-protein kinase BTK, sequence (Q06187 whole entry): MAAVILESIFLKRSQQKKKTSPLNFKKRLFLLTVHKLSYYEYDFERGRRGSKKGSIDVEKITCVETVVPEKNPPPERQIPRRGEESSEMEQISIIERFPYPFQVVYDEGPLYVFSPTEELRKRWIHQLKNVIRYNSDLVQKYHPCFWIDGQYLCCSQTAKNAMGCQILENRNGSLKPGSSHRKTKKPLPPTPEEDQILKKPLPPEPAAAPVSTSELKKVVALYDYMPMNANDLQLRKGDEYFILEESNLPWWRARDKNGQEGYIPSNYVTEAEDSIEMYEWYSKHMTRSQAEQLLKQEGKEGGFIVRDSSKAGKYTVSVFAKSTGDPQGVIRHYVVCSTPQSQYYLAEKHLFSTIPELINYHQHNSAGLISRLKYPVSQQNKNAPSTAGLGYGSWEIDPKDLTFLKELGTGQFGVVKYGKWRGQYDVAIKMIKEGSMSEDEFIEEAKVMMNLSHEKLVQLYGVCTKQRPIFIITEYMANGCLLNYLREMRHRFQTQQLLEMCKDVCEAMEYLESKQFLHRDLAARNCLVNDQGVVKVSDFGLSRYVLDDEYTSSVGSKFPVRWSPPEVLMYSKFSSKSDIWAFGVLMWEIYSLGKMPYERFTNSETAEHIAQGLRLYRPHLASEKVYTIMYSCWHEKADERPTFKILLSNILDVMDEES

Structure (SMILES)	Papp A→B [1]	microsomal CLint [2]	microsomal CLint [3]	microsomal CLint [4]	other results
C=CC(=O)N1CC[C@H](Nc2ccc(C(N)=O)c(Oc3ccc(Oc4ccccc4)cc3)n2)C1	30 nm/s	254 µL/min/mg	125 µL/min/mg	228 µL/min/mg	–
C=CC(=O)N1C2CC1CN(c1ccc(C(N)=O)c(Oc3ccc(Oc4ccccc4)cc3)n1)C2	–	167 µL/min/mg	49 µL/min/mg	647 µL/min/mg	–
C=CC(=O)N[C@@H]1CCCN(c2ccc(C(N)=O)c(Oc3ccc(Oc4ccccc4)cc3)n2)C1	–	1000 µL/min/mg	309 µL/min/mg	488 µL/min/mg	–
C=CC(=O)N1C[C@@H]2C[C@H]1CN2c1ccc(C(N)=O)c(Oc2ccc(Oc3ccccc3)cc2)n1	67 to 68 nm/s	203 µL/min/mg	74 µL/min/mg	62 µL/min/mg	Vdss (Rattus norvegicus): 0.86 L/kg; inhibition [5]: 96%; inhibition [6]: 95%; fraction unbound [7]: 0.0031; fraction unbound [8]: 0.002; CL/F [9]: 1.24 L/h/kg; pKi [10]: 5.66; inhibition [11]: 54%; bioavailability [12]: 47%; pIC50 (Cytochrome P450 2C8): 7.00; half-life [13]: 43.2 min; fraction unbound [14]: 0.0046
C=CC(=O)N1CCC[C@@H](n2nc(-c3ccc(Oc4ccccc4)cc3)c3c(N)ncnc32)C1 [IBRUTINIB]	72 nm/s	–	–	–	inhibition at 1 µM (EGFR): > 50%; pIC50 (Cytochrome P450 2C9): 5.07; pIC50 (Cytochrome P450 2C19): 4.72; pIC50 (Cytochrome P450 2B6): 4.95; fraction unbound [7]: 0.02; fraction unbound [8]: 0.017; pIC50 (Cytochrome P450 3A4): 4.96; bioavailability [12]: 12%; half-life [13]: 30 min; fraction unbound [14]: 0.025
C=CC(=O)N1C2CCC1CN(c1ccc(C(N)=O)c(Oc3ccc(Oc4ccccc4)cc3)n1)C2	6 nm/s	145 µL/min/mg	106 µL/min/mg	315 µL/min/mg	–
C=CC(=O)N1CCN(c2ccc(C(N)=O)c(Oc3ccc(Oc4ccccc4)cc3)n2)CC1	130 nm/s	97 µL/min/mg	< 10 µL/min/mg	18 µL/min/mg	–
C=CC(=O)N[C@H]1CCN(c2ccc(C(N)=O)c(Oc3ccc(C(=O)N4CCOCC4)cc3)n2)C1	–	–	–	–	pIC50 [15]: 5.00
C=CC(=O)NCC1CCCN(c2ccc(C(N)=O)c(Oc3ccc(Oc4ccccc4)cc3)n2)C1 (configuration not stated)	–	302 µL/min/mg	140 µL/min/mg	562 µL/min/mg	–
C=CC(=O)N[C@H]1CCN(c2ccc(C(N)=O)c(Oc3ccc(Oc4ccccc4)cc3)n2)C1	140 nm/s	21 µL/min/mg	10 µL/min/mg	27 µL/min/mg	–
C=CC(=O)N1C[C@H]2C[C@@H]1CN2c1ccc(C(N)=O)c(Oc2ccc(Oc3ccccc3)cc2)n1	80 nm/s	148 µL/min/mg	33 µL/min/mg	472 µL/min/mg	–
C=CC(=O)N[C@H]1CCN(c2ccc(C(N)=O)c(Nc3ccc(C(=O)N4CCOCC4)cc3)n2)C1	–	–	–	–	pIC50 [15]: 8.80
C=CC(=O)N1CC[C@@H](Nc2ccc(C(N)=O)c(Oc3ccc(Oc4ccccc4)cc3)n2)C1	100 nm/s	136 µL/min/mg	156 µL/min/mg	191 µL/min/mg	–
